This assay deals with HIS-TGFβR1 T204D (Homo sapiens (Human), UniProt P36897, T204D). As to the kind of experiment: HTRF probe-displacement assay, HIS-TGFβR1 T204D. The format is binding. Particulars: 1 hour at room temperature.

A word on the IC50: it is the midpoint of a concentration-inhibition curve. Higher therefore signals lower potency.

Sequence of HIS-TGFβR1 T204D (P36897 34-503 T204D): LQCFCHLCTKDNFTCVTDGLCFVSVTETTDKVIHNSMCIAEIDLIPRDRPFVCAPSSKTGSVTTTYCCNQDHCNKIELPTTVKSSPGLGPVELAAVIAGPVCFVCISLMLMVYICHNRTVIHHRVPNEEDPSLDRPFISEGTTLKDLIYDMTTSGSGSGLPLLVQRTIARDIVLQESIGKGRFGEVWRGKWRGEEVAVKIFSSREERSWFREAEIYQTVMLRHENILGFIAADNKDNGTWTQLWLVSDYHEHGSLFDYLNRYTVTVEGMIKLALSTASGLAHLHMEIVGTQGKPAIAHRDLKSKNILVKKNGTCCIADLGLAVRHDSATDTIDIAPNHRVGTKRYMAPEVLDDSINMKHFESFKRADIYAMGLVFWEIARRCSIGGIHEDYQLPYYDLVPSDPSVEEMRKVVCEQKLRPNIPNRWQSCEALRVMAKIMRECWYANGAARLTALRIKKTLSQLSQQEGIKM

`COc1cccc(-c2nc(Nc3ccncc3F)c3cc(CN4CCC(F)(F)CC4)cn3n2)n1` [Example 40, N-{6-[(4,4-difluoropiperidin-1-yl)methyl]-2-(6-methoxypyridin-2-yl)pyrrolo[2,1-f][1,2,4]triazin-4-yl}-3-fluoropyridin-4-amine] had an IC50 of 230 nM.

Compound `COc1cccc(-c2nc(Nc3ccncc3F)c3ccc(F)n3n2)n1` [Example 41, 3-fluoro-N-[7-fluoro-2-(6-methoxypyridin-2-yl)pyrrolo[2,1-f][1,2,4]triazin-4-yl]pyridin-4-amine] came in with an IC50 of 87 nM. This IC50 is about 2.6-fold lower than that of the compound before.

`CCc1cc2c(Nc3ccncc3F)nc(-c3cccc(OC)n3)nn2c1` [Example 42, N-[6-ethyl-2-(6-methoxypyridin-2-yl)pyrrolo[2,1-f][1,2,4]triazin-4-yl]-3-fluoropyridin-4-amine] had an IC50 of 160 nM. This IC50 is about 1.8-fold higher than that of the compound before.

`COc1cccc(-c2nc(Nc3ccncc3F)c3cc(CCCCN4CCN(C)CC4)cn3n2)n1` [Example 43, 3-fluoro-N-[2-(6-methoxypyridin-2-yl)-6-[4-(4-methylpiperazin-1-yl)butyl]pyrrolo[2,1-f][1,2,4]triazin-4-yl]pyridin-4-amine] gave an IC50 of 2200 nM. This IC50 lies about 14-fold higher than the previous one.

Consider `COc1cccc(-c2nc(Nc3ccncc3F)c3cc(CCN4CCN(C)CC4)cn3n2)n1` [Example 44, 3-fluoro-N-[2-(6-methoxypyridin-2-yl)-6-[2-(4-methylpiperazin-1-yl)ethyl]pyrrolo[2,1-f][1,2,4]triazin-4-yl]pyridin-4-amine], for which the IC50 was found to be 1700 nM.

The compound `COc1cccc(-c2nc(Nc3ccncc3F)c3c(OCCN4CCCC4)ccn3n2)n1` [Example 45, 3-fluoro-N-[2-(6-methoxypyridin-2-yl)-5-[2-(pyrrolidin-1-yl)ethoxy]pyrrolo[2,1-f][1,2,4]triazin-4-yl]pyridin-4-amine] displayed an IC50 of 4900 nM.

Compound `COc1cccc(-c2nc(Nc3ccncc3F)c3c(CCO)ccn3n2)n1` [Example 46, 2-{4-[(3-fluoropyridin-4-yl)amino]-2-(6-methoxypyridin-2-yl)pyrrolo[2,1-f][1,2,4]triazin-5-yl}ethan-1-ol] came in with an IC50 of 3 nM.

Consider `COc1cccc(-c2nc(Nc3ccncc3NC(C)=O)c3cccn3n2)n1` [Example 47, N-(4-{[2-(6-methoxypyridin-2-yl)pyrrolo[2,1-f][1,2,4]triazin-4-yl]amino}pyridin-3-yl)acetamide], for which the IC50 was found to be 180 nM.

In the case of `COc1cccc(-c2nc(Nc3ccncc3F)c3c(C(C)(C)O)ccn3n2)n1` [Example 48, 2-{4-[(3-fluoropyridin-4-yl)amino]-2-(6-methoxypyridin-2-yl)pyrrolo[2,1-f][1,2,4]triazin-5-yl}propan-2-ol], the IC50 came to 32 nM.

For `Cc1cccc(-c2nc(Nc3ccncc3)c3cc(C(=O)NCCCN4CCCC4)cn3n2)n1` [Example 50, 2-(6-methylpyridin-2-yl)-4-[(pyridin-4-yl)amino]-N-[3-(pyrrolidin-1-yl)propyl]pyrrolo[2,1-f][1,2,4]triazine-6-carboxamide], the IC50 came to 76 nM. Compared with the last compound, the IC50 is about 2.4-fold higher.

Turning to `Cc1cccc(-c2nc(Nc3ccncc3OCCCCN(C)C)c3cccn3n2)n1` [Example 51, 3-[4-(dimethylamino)butoxy]-N-[2-(6-methylpyridin-2-yl)pyrrolo[2,1-f][1,2,4]triazin-4-yl]pyridin-4-amine], the IC50 is 30 nM.

As to `Cc1cccc(-c2nc(Nc3ccncc3F)c3ccc(C(=O)O)n3n2)n1` [Example 52, 4-[(3-fluoropyridin-4-yl)amino]-2-(6-methylpyridin-2-yl)pyrrolo[2,1-f][1,2,4]triazine-7-carboxylic acid], the IC50 came out at 35 nM.

With `Nc1cccc(-c2nc(Nc3ccncc3F)c3cccn3n2)n1` [Example 53, 2-(6-aminopyridin-2-yl)-N-(3-fluoropyridin-4-yl)pyrrolo[2,1-f][1,2,4]triazin-4-amine], the IC50 came to 1.6 nM.

On to `Clc1cnccc1Nc1nc(-c2ccccn2)nn2cccc12` [Example 54, 3-chloro-N-[2-(pyridin-2-yl)pyrrolo[2,1-f][1,2,4]triazin-4-yl]pyridin-4-amine], for which the IC50 came out at 1.6 nM.

In turn, `Fc1cc(Nc2nc(-c3ccccn3)nn3cccc23)ccn1` [Example 55, 2-fluoro-N-[2-(pyridin-2-yl)pyrrolo[2,1-f][1,2,4]triazin-4-yl]pyridin-4-amine] returned an IC50 of 69 nM.

Take `COc1cccc(-c2nc(Nc3ccncc3F)c3cccn3n2)n1` [Example 58, 3-fluoro-N-[2-(6-methoxypyridin-2-yl)pyrrolo[2,1-f][1,2,4]triazin-4-yl]pyridin-4-amine]: the IC50 came out at 4 nM.

`Cc1cccc(-c2nc(Nc3ccncc3Cl)c3cccn3n2)n1` [Example 59, 3-chloro-N-[2-(6-methylpyridin-2-yl)pyrrolo[2,1-f][1,2,4]triazin-4-yl]pyridin-4-amine] yielded an IC50 of 1.6 nM.

In the case of `COc1cccc(-c2nc(Nc3ccncc3Cl)c3cccn3n2)n1` [Example 60, 3-chloro-N-[2-(6-methoxypyridin-2-yl)pyrrolo[2,1-f][1,2,4]triazin-4-yl]pyridin-4-amine], the IC50 is 5.4 nM.

The compound `Fc1cnccc1Nc1nc(-c2cc(Cl)ccn2)nn2cccc12` [Example 63, N-[2-(4-chloropyridin-2-yl)pyrrolo[2,1-f][1,2,4]triazin-4-yl]-3-fluoropyridin-4-amine] returned an IC50 of 150 nM.

As to `Cc1cccc(-c2nc(Nc3ccncn3)c3cccn3n2)n1` [Example 64, N-[2-(6-methylpyridin-2-yl)pyrrolo[2,1-f][1,2,4]triazin-4-yl]pyrimidin-4-amine], the IC50 amounted to 2.2 nM.

Consider `Fc1ccc(-c2nc(Nc3ccncc3F)c3cccn3n2)nc1` [Example 65, 3-fluoro-N-[2-(5-fluoropyridin-2-yl)pyrrolo[2,1-f][1,2,4]triazin-4-yl]pyridin-4-amine], for which the IC50 stood at 0.79 nM.

In the case of `Fc1cnccc1Nc1nc(-c2ccc(F)c(C(F)F)n2)nn2cccc12` [Example 66, N-{2-[6-(difluoromethyl)-5-fluoropyridin-2-yl]pyrrolo[2,1-f][1,2,4]triazin-4-yl}-3-fluoropyridin-4-amine], the IC50 was 0.46 nM.

The compound `COc1cccc(-c2nc(Nc3ccncn3)c3cccn3n2)n1` [Example 67, N-[2-(6-methoxypyridin-2-yl)pyrrolo[2,1-f][1,2,4]triazin-4-yl]pyrimidin-4-amine] had an IC50 of 55 nM.

In the case of `COC(=O)Nc1cc(Nc2nc(-c3cccc(OC)n3)nn3cccc23)ccn1` [Example 68, Methyl N-(4-{[2-(6-methoxypyridin-2-yl)pyrrolo[2,1-f][1,2,4]triazin-4-yl]amino}pyridin-2-yl)carbamate], the IC50 came to 5 nM. This IC50 lies about 11-fold lower than the previous one.

With `Cc1nc(-c2nc(Nc3ccncc3)c3cccn3n2)ccc1F` [Example 69, N-[2-(5-fluoro-6-methylpyridin-2-yl)pyrrolo[2,1-f][1,2,4]triazin-4-yl]pyridin-4-amine], the IC50 was determined as 1.9 nM. Compared with the last compound, the IC50 is about 2.6-fold lower.

In the case of `Fc1cccc(-c2nc(Nc3ccncc3Cl)c3cccn3n2)n1` [Example 70, 3-chloro-N-[2-(6-fluoropyridin-2-yl)pyrrolo[2,1-f][1,2,4]triazin-4-yl]pyridin-4-amine], the IC50 worked out at 0.39 nM.

Consider `Cc1cncc(-c2nc(Nc3ccncc3F)c3cccn3n2)n1` [Example 71, 3-fluoro-N-[2-(6-methylpyrazin-2-yl)pyrrolo[2,1-f][1,2,4]triazin-4-yl]pyridin-4-amine], for which the IC50 worked out at 96 nM.

`CCNC(=O)Nc1cc2c(Nc3ccncc3F)nc(-c3cccc(OC)n3)nn2c1` [Example 72, 3-ethyl-1-{4-[(3-fluoropyridin-4-yl)amino]-2-(6-methoxypyridin-2-yl)pyrrolo[2,1-f][1,2,4]triazin-6-yl}urea] yielded an IC50 of 370 nM.

The compound `COC(=O)Nc1cc2c(Nc3ccncc3F)nc(-c3cccc(OC)n3)nn2c1` [Example 73, Methyl N-{4-[(3-fluoropyridin-4-yl)amino]-2-(6-methoxypyridin-2-yl)pyrrolo[2,1-f][1,2,4]triazin-6-yl}carbamate] gave an IC50 of 74 nM. Against the preceding compound, the IC50 is about 5-fold lower.

As for `FC(F)(F)c1cccc(-c2nc(Nc3ccncc3OCCCN3CCOCC3)c3cccn3n2)n1` [Example 75], the concentration for half-maximal inhibition (IC50) stood at 210 nM. This IC50 lies about 2.8-fold higher than the previous one.

The compound `Cc1cccc(-c2nc(Nc3ccncc3F)c3c(CN4CCC(F)(F)CC4)ccn3n2)n1` [Example 76, N-{5-[(4,4-difluoropiperidin-1-yl)methyl]-2-(6-methylpyridin-2-yl)pyrrolo[2,1-f][1,2,4]triazin-4-yl}-3-fluoropyridin-4-amine] showed an IC50 of 0.25 nM.

Regarding `CS(=O)(=O)Nc1cccc(-c2nc(Nc3ccncc3F)c3cccn3n2)n1` [Example 77, N-(6-{4-[(3-fluoropyridin-4-yl)amino]pyrrolo[2,1-f][1,2,4]triazin-2-yl}pyridin-2-yl)methanesulfonamide], the IC50 was determined as 12 nM.

Consider `Fc1cnccc1Nc1nc(-c2cccc(C(F)F)n2)nn2cccc12` [Example 78, N-{2-[6-(difluoromethyl)pyridin-2-yl]pyrrolo[2,1-f][1,2,4]triazin-4-yl}-3-fluoropyridin-4-amine], for which the IC50 came out at 0.92 nM.

In turn, `C=CCOc1cnccc1Nc1nc(-c2ccccn2)nn2cccc12` [Example 79, 3-(prop-2-en-1-yloxy)-N-[2-(pyridin-2-yl)pyrrolo[2,1-f][1,2,4]triazin-4-yl]pyridin-4-amine] had an IC50 of 13 nM.

Compound `FC(F)c1cccc(-c2nc(Nc3ccncc3Cl)c3cccn3n2)n1` [Example 80, 3-chloro-N-{2-[6-(difluoromethyl)pyridin-2-yl]pyrrolo[2,1-f][1,2,4]triazin-4-yl}pyridin-4-amine] returned an IC50 of 1.1 nM.

The compound `Cn1nccc1-c1nc(Nc2ccncc2Cl)c2cccn2n1` [Example 81, 3-chloro-N-[2-(1-methyl-1H-pyrazol-5-yl)pyrrolo[2,1-f][1,2,4]triazin-4-yl]pyridin-4-amine] returned an IC50 of 360 nM.

In turn, `FC(F)(F)c1cccc(-c2nc(Nc3ccnc(Cl)c3)c3cccn3n2)n1` [Example 82, 2-chloro-N-{2-[6-(trifluoromethyl)pyridin-2-yl]pyrrolo[2,1-f][1,2,4]triazin-4-yl}pyridin-4-amine] registered an IC50 of 2700 nM.

Take `NC(=O)c1cnccc1Nc1nc(-c2ccccn2)nn2cccc12` [Example 83, 4-{[2-(pyridin-2-yl)pyrrolo[2,1-f][1,2,4]triazin-4-yl]amino}pyridine-3-carboxamide]: the IC50 amounted to 0.76 nM.

(Values after US10336761B2, “TGFβ receptor antagonist” (BRISTOL-MYERS SQUIBB COMPANY, priority 2015, dated 2019).)
